One data set concerns Aspergillus flavus. Description: Agar plate disc-diffusion antifungal test. Format: cell-based. The note with it: Sabouraud's dextrose agar, 72 hours. As to the method:
(§1) The agar plate disc-diffusion method was applied. Sterilized filter papers (6 mm in diameter) were wetted with 10 μL of a solution of 2-(benzo[d]oxazol-2-yl)-N′-(picolinoyloxy)acetimidamide (3) to be tested, containing 10 mg/mL in DMSO, and the discs were allowed to air dry. The discs were then placed onto the surface of agar plates (nutrient agar for bacteria and Sabouraud's dextrose agar for fungi) seeded with the test organism. Each plate contained 15 mL of the agar medium, previously seeded with 0.2 mL of the broth culture of each organism pregrown for 18 hours. The plates were incubated at 37° C. for 48 hours, and 72 hours for fungi. The inhibition zones was measured in mm. Discs impregnated with DMSO were used as a control, and its inhibition zone was subtracted from the tested compound actual inhibition zone.
In general terms: A growth-free zone around the sample is the usual read-out of agar diffusion tests.

The test system of data set [1] is Chrysosporium keratinophilum. Kind of data set: Agar plate disc-diffusion antifungal test. The class given is cell-based. Conditions: Sabouraud's dextrose agar, 72 hours. The protocol: as §1
In the next data set the test system is Bacillus cereus. Description: Agar plate disc-diffusion antibacterial test. Conditions: nutrient agar, 37° C., 48 hours. Format: cell-based. As to the method:
as §1

Another data set concerns Escherichia coli. Description: Agar plate disc-diffusion antibacterial test. The class given is cell-based. The note with it: nutrient agar, 37° C., 48 hours. As to the method: as §1
The next data set has as its system Pseudomonas aeruginosa. Kind of data set: Agar plate disc-diffusion antibacterial test. The note with it: nutrient agar, 37° C., 48 hours. The class given is cell-based. The protocol:
as §1

In a further data set the test system is Staphylococcus aureus. Kind of data set: Agar plate disc-diffusion antibacterial test. The class given is cell-based. The note with it: nutrient agar, 37° C., 48 hours. As to the method: as §1
Setting [2] is: A = concentration of comp. = 10,000 μL.
Where [3] appears, read: B = concentration of comp. = 30,000 μL.
Where [4] appears, read: C = concentration of comp. = 50,000 μL.

One may read the melting point as the temperature of the solid-liquid transition. In the case of `N/C(Cc1nc2ccccc2o1)=N\OC(=O)c1ccccn1` [Compound 3, 2-(benzo[d]oxazol-2-yl)-N′-(picolinoyloxy)acetimidamide], the melting point lay in the range of 156 to 158 °C. The “inhibition zone, Aspergillus flavus, A” value with Aspergillus flavus (setting [2]) is reported as 24 mm. Moreover, the “inhibition zone, Aspergillus flavus, B” value in the data set on Aspergillus flavus (setting [3]) is listed as 27 mm. Further, in the data set with Aspergillus flavus (setting [4]), the “inhibition zone, Aspergillus flavus, C” value was 38 mm. Besides, in data set [1] (setting [2]), the “inhibition zone, Chrysosporium keratinophilum, A” value is 23 mm. For the same compound, the “inhibition zone, Chrysosporium keratinophilum, B” value in data set [1] (setting [3]) is recorded as 29 mm. The “inhibition zone, Chrysosporium keratinophilum, C” value in data set [1] (setting [4]) was 48 mm. Moreover, the “inhibition zone, Bacillus Cereus, A” value with Bacillus cereus (setting [2]) was determined as 25 mm. For the same compound, in the data set with Bacillus cereus (setting [3]), the “inhibition zone, Bacillus Cereus, B” value came to 27 mm. For the same compound, in the data set on Bacillus cereus (setting [4]), the “inhibition zone, Bacillus Cereus, C” value was found to be 39 mm. Besides, the “inhibition zone, Escherichia coli, A” value in the data set with Escherichia coli (setting [2]) was found to be 29 mm. In addition, in the data set on Escherichia coli (setting [3]), the “inhibition zone, Escherichia coli, B” value amounted to 37 mm. Further, the “inhibition zone, Escherichia coli, C” value with Escherichia coli (setting [4]) is on record as 53 mm. The “inhibition zone, Pseudomonas aeruginosa, A” value in the data set on Pseudomonas aeruginosa (setting [2]) is on record as 25 mm. In the data set on Pseudomonas aeruginosa (setting [3]), the “inhibition zone, Pseudomonas aeruginosa, B” value is 31 mm. In the data set on Pseudomonas aeruginosa (setting [4]), the “inhibition zone, Pseudomonas aeruginosa, C” value is 45 mm. The “inhibition zone, Staphylococcus aureus, A” value in the data set with Staphylococcus aureus (setting [2]) is on record as 15 mm. Also, in the data set on Staphylococcus aureus (setting [3]), the “inhibition zone, Staphylococcus aureus, B” value came out at 20 mm. In addition, the “inhibition zone, Staphylococcus aureus, C” value with Staphylococcus aureus (setting [4]) came to 28 mm.

Values taken from US11905280B1, “2-(benzo[d]oxazol-2-yl)-N'-(picolinoyloxy)acetimidamide as an antimicrobial compound” (KING FAISAL UNIVERSITY, priority 2023, dated 2024).
